Read-outs that look alike come from different tables or passages of the source. *1 amine or outer side, *2 acyl side, *3 side chain or, on linkers, in order; H or OH if unused. Where a SMILES comes first, the peptide text is derived from it. Side-chain parts run from the residue outwards. [ ]: non-standard residue; d: D form. The star is where a group is joined. Isobutyryl(2-(3-CN-5-F-Ph)) = CC(C)(C(=O)*)c1cc(F)cc(C#N)c1; C20 diacid = O=C(O)CCCCCCCCCCCCCCCCCCC(=O)*; αMePhe(2-F) = C[C@](N)(Cc1ccccc1F)C(=O)O; NH(3,5-Cl2-phenyl) = Clc1cc(Cl)cc(N*)c1; γGlu = O=C(O)[C@H](CCC(=O)[*:2])N[*:1]; X46 = O=C(C1(c2ccccc2)CCOCC1)*; X28 = O=C(C1(n2cccn2)CCNCC1)*; X60 = O=C(C1(c2cccnc2)CCCC1)*; AEEA = NCCOCCOCC(=O)O; Aib = CC(C)(N)C(=O)O; CO = O=C([*:1])[*:2]; GABA = NCCCC(=O)O; βAla = NCCC(=O)O
Assays:
Assay type in all cases: cell-based
GIP receptor [1] = molecular target: T1, GIP receptor (Homo sapiens, UniProt P48546); experiment: PathHunter β-arrestin assay, GIP receptor; set-up: host or cells: PathHunter CHO-K1 GIPR β-Arrestin Cell Line
T1 sequence (P48546 22-466): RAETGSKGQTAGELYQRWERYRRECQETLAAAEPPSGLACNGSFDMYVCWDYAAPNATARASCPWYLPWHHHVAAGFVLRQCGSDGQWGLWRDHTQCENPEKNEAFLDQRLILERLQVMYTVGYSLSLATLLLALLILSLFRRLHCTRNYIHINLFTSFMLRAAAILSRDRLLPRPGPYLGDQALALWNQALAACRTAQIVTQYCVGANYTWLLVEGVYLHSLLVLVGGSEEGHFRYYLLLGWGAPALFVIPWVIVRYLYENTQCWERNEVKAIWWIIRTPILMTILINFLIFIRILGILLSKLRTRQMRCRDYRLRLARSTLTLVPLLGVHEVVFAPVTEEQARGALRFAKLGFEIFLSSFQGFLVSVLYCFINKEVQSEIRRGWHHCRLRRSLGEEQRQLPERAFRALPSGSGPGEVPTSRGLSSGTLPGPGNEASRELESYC

GLP-1 receptor [2] = molecular target: T2, GLP-1 receptor (Homo sapiens, UniProt P43220); experiment: PathHunter β-arrestin assay, GLP-1 receptor; set-up: host or cells: PathHunter CHO-K1 GLP1R β-Arrestin Cell Line
T2 sequence (P43220 24-463): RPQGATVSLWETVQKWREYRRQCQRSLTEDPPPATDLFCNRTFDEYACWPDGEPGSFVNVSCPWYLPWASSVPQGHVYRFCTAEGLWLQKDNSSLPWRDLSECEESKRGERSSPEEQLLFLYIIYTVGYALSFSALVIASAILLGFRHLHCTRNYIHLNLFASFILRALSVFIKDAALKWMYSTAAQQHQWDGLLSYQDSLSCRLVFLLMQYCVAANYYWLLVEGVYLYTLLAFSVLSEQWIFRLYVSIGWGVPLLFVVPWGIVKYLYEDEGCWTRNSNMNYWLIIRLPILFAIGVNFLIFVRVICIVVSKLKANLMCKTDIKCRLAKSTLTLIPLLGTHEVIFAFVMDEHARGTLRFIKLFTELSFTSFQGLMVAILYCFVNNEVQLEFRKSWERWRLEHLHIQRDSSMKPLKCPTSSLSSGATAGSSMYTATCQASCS

GIP receptor [3] = molecular target: T1, GIP receptor; experiment: HitHunter cAMP assay, GIP receptor; settings: for Emax: read-out: Emax GIP-1R
GLP-1 receptor [4] = molecular target: T2, GLP-1 receptor; experiment: HitHunter cAMP assay, GLP-1 receptor; settings: for Emax: read-out: Emax GLP-1R
[5] = β-arrestin-2 recruitment, PathHunter CHO-K1 GIPR β-Arrestin Cell Line, 90 min at 37° C., normalized to GIP, read-out: GIPR β Arrestin EC50
[6] = β-arrestin-2 recruitment, PathHunter CHO-K1 GLP1R β-Arrestin Cell Line, 90 min at 37° C., normalized to GLP-1, read-out: GLP-1R β Arrestin EC50
[7] = CHO cells stably expressing GIP receptor, cAMP accumulation, 30 min, read-out: EC50 GIP-1R
[8] = CHO cells, cAMP, normalized to maximum signal from GIP (high) and DMSO (low)
[9] = CHO cells stably expressing human GLP-1 receptor, cAMP accumulation, 30 min, read-out: EC50 GLP-1R
[10] = CHO cells, cAMP, normalized to maximum signal from GLP-1 (high) and DMSO (low)

Structure (SMILES)	EC50 (GIP receptor [1]; [5]) [nM]	EC50 (GLP-1 receptor [2]; [6]) [nM]	EC50 (GIP receptor [3]; [7]) [nM]	Emax (GIP receptor [3]; [8]) [%]	EC50 (GLP-1 receptor [4]; [9]) [nM]	Emax (GLP-1 receptor [4]; [10]) [%]	EC50 (GIP receptor [1]) [nM]	EC50 (GLP-1 receptor [2]) [nM]	EC50 (GIP receptor [3]) [nM]	Emax (GIP receptor [3]; CHO) [%]	EC50 (GLP-1 receptor [4]) [nM]	Emax (GLP-1 receptor [4]; CHO) [%]
CC[C@H](C)[C@H](NC(=O)[C@H](CC(C)C)NC(=O)[C@H](Cc1c[nH]c2ccccc12)NC(=O)[C@H](CCC(N)=O)NC(=O)[C@@H](NC(=O)[C@H](Cc1ccccc1)NC(=O)[C@H](C)NC(=O)[C@H](CCCCNC(=O)COCCOCCNC(=O)COCCOCCNC(=O)CC[C@H](NC(=O)CCCCCCCCCCCCCCCCCCC(=O)O)C(=O)O)NC(=O)[C@H](CCC(N)=O)NC(=O)[C@H](C)NC(=O)[C@@H](NC(=O)[C@H](CCCCN)NC(=O)[C@H](CC(=O)O)NC(=O)[C@H](CC(C)C)NC(=O)C(C)(C)NC(=O)[C@@H](NC(=O)[C@H](CO)NC(=O)[C@H](Cc1ccc(O)cc1)NC(=O)[C@H](CC(=O)O)NC(=O)[C@H](CO)NC(=O)[C@@H](NC(=O)[C@](C)(Cc1ccccc1F)NC(=O)[C@@H](NC(=O)CNC(=O)[C@H](CCC(=O)O)NC(=O)CCNC(=O)C1(c2ccccc2)CCOCC1)[C@@H](C)O)[C@@H](C)O)[C@@H](C)CC)[C@@H](C)CC)C(C)C)C(=O)N[C@@H](C)C(=O)NCC(=O)NCC(=O)N1CCC[C@H]1C(=O)N[C@@H](CO)C(=O)N[C@@H](CO)C(=O)NCC(=O)N[C@@H](C)C(=O)N1CCC[C@H]1C(=O)N1CCC[C@H]1C(=O)N1CCC[C@H]1C(=O)N[C@@H](CO)C(N)=O [Compound 178] ({X46-βAla}-EGT[αMePhe(2-F)]TSDYSI[Aib]LDKIAQK([AEEA-AEEA-γGlu-C20 diacid])AFVQWLIAGGPSSGAPPPS-NH2)	< 1000	> 1000	0.1 to 1	105	0.1 to 1	98						
CC[C@H](C)[C@H](NC(=O)[C@H](CC(C)C)NC(=O)[C@H](Cc1c[nH]c2ccccc12)NC(=O)[C@H](CCC(N)=O)NC(=O)[C@@H](NC(=O)[C@H](Cc1ccccc1)NC(=O)[C@H](C)NC(=O)[C@H](CCCCNC(=O)COCCOCCNC(=O)COCCOCCNC(=O)CC[C@H](NC(=O)CCCCCCCCCCCCCCCCCCC(=O)O)C(=O)O)NC(=O)[C@H](CCC(N)=O)NC(=O)[C@H](C)NC(=O)[C@@H](NC(=O)[C@H](CCCCN)NC(=O)[C@H](CC(=O)O)NC(=O)[C@H](CC(C)C)NC(=O)C(C)(C)NC(=O)[C@@H](NC(=O)[C@H](CO)NC(=O)[C@H](Cc1ccc(O)cc1)NC(=O)[C@H](CC(=O)O)NC(=O)[C@H](CO)NC(=O)[C@@H](NC(=O)[C@H](Cc1ccccc1)NC(=O)[C@@H](NC(=O)CNC(=O)[C@H](CCC(=O)O)NC(=O)CCCNC(=O)CNC(=O)Nc1cc(Cl)cc(Cl)c1)[C@@H](C)O)[C@@H](C)O)[C@@H](C)CC)[C@@H](C)CC)C(C)C)C(=O)N[C@@H](C)C(=O)NCC(=O)NCC(=O)N1CCC[C@H]1C(=O)N[C@@H](CO)C(=O)N[C@@H](CO)C(=O)NCC(=O)N[C@@H](C)C(=O)N1CCC[C@H]1C(=O)N1CCC[C@H]1C(=O)N1CCC[C@H]1C(=O)N[C@@H](CO)C(N)=O [Compound 266] ({NH(3,5-Cl2-phenyl)-CO}-G[GABA]EGTFTSDYSI[Aib]LDKIAQK([AEEA-AEEA-γGlu-C20 diacid])AFVQWLIAGGPSSGAPPPS-NH2)							< 1000	> 1000	1 to 10	105	1 to 10	105
CC[C@H](C)[C@H](NC(=O)[C@H](CC(C)C)NC(=O)[C@H](Cc1c[nH]c2ccccc12)NC(=O)[C@H](CCC(N)=O)NC(=O)[C@@H](NC(=O)[C@H](Cc1ccccc1)NC(=O)[C@H](C)NC(=O)[C@H](CCCCNC(=O)COCCOCCNC(=O)COCCOCCNC(=O)CC[C@H](NC(=O)CCCCCCCCCCCCCCCCCCC(=O)O)C(=O)O)NC(=O)[C@H](CCC(N)=O)NC(=O)[C@H](C)NC(=O)[C@@H](NC(=O)[C@H](CCCCN)NC(=O)[C@H](CC(=O)O)NC(=O)[C@H](CC(C)C)NC(=O)C(C)(C)NC(=O)[C@@H](NC(=O)[C@H](CO)NC(=O)[C@H](Cc1ccc(O)cc1)NC(=O)[C@H](CC(=O)O)NC(=O)[C@H](CO)NC(=O)[C@H](C)NC(=O)[C@H](Cc1ccccc1)NC(=O)[C@@H](NC(=O)CNC(=O)[C@H](CCC(=O)O)NC(=O)CCNC(=O)C(C)(C)c1cc(F)cc(C#N)c1)[C@@H](C)O)[C@@H](C)CC)[C@@H](C)CC)C(C)C)C(=O)N[C@@H](C)C(=O)NCC(=O)NCC(=O)N1CCC[C@H]1C(=O)N[C@@H](CO)C(=O)N[C@@H](CO)C(=O)NCC(=O)N[C@@H](C)C(=O)N1CCC[C@H]1C(=O)N1CCC[C@H]1C(=O)N1CCC[C@H]1C(=O)N[C@@H](CO)C(N)=O [Compound 168] ({Isobutyryl(2-(3-CN-5-F-Ph))-βAla}-EGTFASDYSI[Aib]LDKIAQK([AEEA-AEEA-γGlu-C20 diacid])AFVQWLIAGGPSSGAPPPS-NH2)	< 1000	> 1000	1 to 10	112	10 to 100	87						
CC[C@H](C)[C@H](NC(=O)[C@H](CC(C)C)NC(=O)[C@H](Cc1c[nH]c2ccccc12)NC(=O)[C@H](CCC(N)=O)NC(=O)[C@@H](NC(=O)[C@H](Cc1ccccc1)NC(=O)[C@H](C)NC(=O)[C@H](CCCCNC(=O)COCCOCCNC(=O)COCCOCCNC(=O)CC[C@H](NC(=O)CCCCCCCCCCCCCCCCCCC(=O)O)C(=O)O)NC(=O)[C@H](CCC(N)=O)NC(=O)[C@H](C)NC(=O)[C@@H](NC(=O)[C@H](CCCCN)NC(=O)[C@H](CC(=O)O)NC(=O)[C@H](CC(C)C)NC(=O)C(C)(C)NC(=O)[C@@H](NC(=O)[C@H](CO)NC(=O)[C@H](Cc1ccc(O)cc1)NC(=O)[C@H](CC(=O)O)NC(=O)[C@H](CO)NC(=O)[C@@H](NC(=O)[C@](C)(Cc1ccccc1F)NC(=O)[C@@H](NC(=O)CNC(=O)[C@H](CCC(=O)O)NC(=O)CCNC(=O)C1(c2cccnc2)CCCC1)[C@@H](C)O)[C@@H](C)O)[C@@H](C)CC)[C@@H](C)CC)C(C)C)C(=O)N[C@@H](C)C(=O)NCC(=O)NCC(=O)N1CCC[C@H]1C(=O)N[C@@H](CO)C(=O)N[C@@H](CO)C(=O)NCC(=O)N[C@@H](C)C(=O)N1CCC[C@H]1C(=O)N1CCC[C@H]1C(=O)N1CCC[C@H]1C(=O)N[C@@H](CO)C(N)=O [Compound 246] ({X60-βAla}-EGT[αMePhe(2-F)]TSDYSI[Aib]LDKIAQK([AEEA-AEEA-γGlu-C20 diacid])AFVQWLIAGGPSSGAPPPS-NH2)	< 1000	< 1000	0.1 to 1	100	0.1 to 1	130						
CC[C@H](C)[C@H](NC(=O)[C@H](CC(C)C)NC(=O)[C@H](Cc1c[nH]c2ccccc12)NC(=O)[C@H](CCC(N)=O)NC(=O)[C@@H](NC(=O)[C@H](Cc1ccccc1)NC(=O)[C@H](C)NC(=O)[C@H](CCCCNC(=O)COCCOCCNC(=O)COCCOCCNC(=O)CC[C@H](NC(=O)CCCCCCCCCCCCCCCCCCC(=O)O)C(=O)O)NC(=O)[C@H](CCC(N)=O)NC(=O)[C@H](C)NC(=O)[C@@H](NC(=O)[C@H](CCCCN)NC(=O)[C@H](CC(=O)O)NC(=O)[C@H](CC(C)C)NC(=O)C(C)(C)NC(=O)[C@@H](NC(=O)[C@H](CO)NC(=O)[C@H](Cc1ccc(O)cc1)NC(=O)[C@H](CC(=O)O)NC(=O)[C@H](CO)NC(=O)[C@@H](NC(=O)[C@H](Cc1ccccc1)NC(=O)[C@@H](NC(=O)CNC(=O)[C@H](CCC(=O)O)NC(=O)CCNC(=O)C1(n2cccn2)CCNCC1)[C@@H](C)O)[C@@H](C)O)[C@@H](C)CC)[C@@H](C)CC)C(C)C)C(=O)N[C@@H](C)C(=O)NCC(=O)NCC(=O)N1CCC[C@H]1C(=O)N[C@@H](CO)C(=O)N[C@@H](CO)C(=O)NCC(=O)N[C@@H](C)C(=O)N1CCC[C@H]1C(=O)N1CCC[C@H]1C(=O)N1CCC[C@H]1C(=O)N[C@@H](CO)C(N)=O [Compound 160] ({X28-βAla}-EGTFTSDYSI[Aib]LDKIAQK([AEEA-AEEA-γGlu-C20 diacid])AFVQWLIAGGPSSGAPPPS-NH2)	> 1000	> 1000	100 to 1000	94	10 to 100	97						

From patent US12281149B2, “Modulators of G-protein coupled receptors” (priority 2021, dated 2025)
